Source: article PMC11123948, “Leucoverdazyls as Novel Potent Inhibitors of Enterovirus Replication” (Pathogens, 2024)
Where a name gives a salt, the structure may show the parent alone.

Columns and labels:
in vitro [1] = conditions: African green monkey; for CC50 at 24 h: Vero cells
Description: (§1) Permissive cells were seeded in 96-well plates in Eagle’s minimal essential medium (MEM) supplemented with 10% FBS. After 24 h, the medium was removed, and the wells were washed with saline. Compounds w [...

Coxsackie B3 virus = assay: microbe, parasite or virus in culture; type: cell-based, Coxsackievirus B3 (CVB3, strain Nancy); conditions: 24 h, Coxsackie B3 virus (Nancy, original), viral yield reduction in Vero cells
[2] = Antioxidant activity, DPPH assay; type: physicochemical; conditions: DPPH 200 μM in methanol, 30 min at 30 °C; vitamin C as reference; result in words
Description: Antioxidant activity was evaluated by spectrophotometric monitoring of the hydrogen transfer reaction with a stable chromogen radical, 2,2-diphenyl-1-picrylhydrazyl (DPPH, Sigma-Aldrich, St. Louis, MO, USA), using vitamin C (Vc) as described before. A solution of DPPH in methanol with a concentration of 200 μM was added to a solution of dihydrotetrazines in the same solvent (concentrations 5 to 50 μM). The reaction vessel (test tube) was wrapped in foil and kept for 30 min at 30 °C, and the optical density was measured at λ 517 nm (DPPH absorption maximum). The antioxidant activity (AO) was calculated by the formula AO = (1 − Atest/Acontr) × 100%, where Atest is the optical density of a solution containing a compound to be tested and DPPH, and Acontr is the optical density of a solution containing DPPH alone. The half-inhibitory concentration (IC50) corresponding to the reduction of the initial DPPH concentration by 50% was determined from the DPPH inhibition percentage plotted against concentrations of compounds 2 through 5 (Figure 1) using the OriginPro 8.5 program (OriginLab Corporation, Northampton, MA, USA) (Model DoseResp).

[3] = Cytotoxicity assay (MTT) in RD cells; type: cell-based; conditions: human, 24 h incubation with compound only
CVB3 R = assay: microbe, parasite or virus in culture; type: cell-based, Coxsackievirus B3 (Nancy strain), passaged with 1a; conditions: Enterovirus B, CVB3, Vero
in vitro [4] = conditions: dog
SARS-CoV-2 = assay: Viral yield reduction assay, SARS-CoV-2; type: cell-based, SARS-CoV-2 virus (Wuhan strain); conditions: Severe acute respiratory syndrome coronavirus 2, SARS-CoV-2, Vero cells
HSV1 = assay: microbe, parasite or virus in culture; type: cell-based, herpes simplex virus type 1; conditions: Human alphaherpesvirus 1; HSV1, Vero cells, viral yield reduction
CVB3 virus = assay: Transmission electron microscopy of CVB3-infected Vero cells; conditions: MOI 100, 100 µM 1a, 3 h, TEM
Description: Vero cells in 6-well plates were incubated with CVB3 virus, MOI = 100, at 4 °C for 1 h. Unbound virions were removed by washing the cells twice with cold MEM; a medium containing 100 µM of 1a was added. […] Cells were incubated for 3 h at 36 °C in 5% CO2. In wells with control virus, MEM without 1a was added. After incubation, cells were collected from the wells, transferred into tubes, and centrifuged at 2000× g for 15 min. Cell pellets were fixed with 1.5% glutaraldehyde in PBS overnight, followed by post-fixation with 1.5% OsO4 for 1 h and uranyl acetate for 45 min at room temperature. They were then dehydrated in graded acetone and embedded in Epon/Araldit resin (Serva Feinbiochemica, Heidelberg, Germany). Thin sections (90 nm) were stained with lead citrate and examined in a JEM-100S electron microscope (JEOL, Tokyo, Japan).

CVB3-WT and -R variants = assay: Growth kinetics of CVB3 WT and R variants with and without 1a; type: cell-based, Coxsackievirus B3; conditions: Vero cells, MOI 0.001, 1a 7 ug/mL, up to 72 h
[5] = test system: Influenza B/Florida/04/06; assay: microbe, parasite or virus in culture; type: cell-based, influenza B virus (strain B/Florida/04/06, Yamagata lineage); conditions: MDCK
ECHO30 = assay: Viral yield reduction assay, ECHO30; type: cell-based, ECHO30 (clinical isolate); conditions: ECHO30, RD cells
CVB3 WT = assay: microbe, parasite or virus in culture; type: cell-based, Coxsackievirus B3 (Nancy strain), passaged without 1a; conditions: Enterovirus B, CVB3, Vero
CVB5 = assay: Viral yield reduction assay, CVB5; type: cell-based, Coxsackievirus B5 (clinical isolate); conditions: CVB5, Vero cells
Ad5 = assay: microbe, parasite or virus in culture; type: cell-based, human adenovirus type 5; conditions: Human mastadenovirus C, A549
CVA16 = assay: Viral yield reduction assay, CVA16; type: cell-based, Coxsackievirus A16 (clinical isolate); conditions: CVA16, RD cells
Vero cells = assay: Cytotoxicity assay (MTT) in Vero cells
Description: as §1

CVA24 = assay: Viral yield reduction assay, CVA24; type: cell-based, Coxsackievirus A24 (clinical isolate); conditions: CVA24, RD cells
CVB4 = assay: Time-of-addition assay; type: cell-based, Coxsackievirus B4 (CVB4, strain Powers); conditions: CVB4 in Vero cells, 1a 5 μg/mL; for Interval of addition with highest inhibitory activity: pleconaril 10 μg/mL, titer at 8 h
[6] = test system: Influenza A/Puerto Rico/8/34; assay: Viral yield reduction assay, influenza A; type: cell-based, Influenza A virus (strain A/Puerto Rico/8/1934 (H1N1)); conditions: Influenza A virus, Influenza A/Puerto Rico/8/34, MDCK cells
in vitro [7] = conditions: human
CVB4 Powers = assay: Thermostability assay; set-up: species or system Coxsackievirus B4 (CVB4, strain Powers); conditions: compound 10 µg/mL, thermal gradient 37–55 °C for 2 min
Description: The thermostability assay was performed as described previously. The CVB4 strain was chosen because it is sensitive to the pleconaril used in this assay as a reference compound. The compound concentration used in the assay was selected according to the results of preliminary thermostability assays. Briefly, CVB4 Powers (10^4 TCID50) was pre-incubated with the compound (10 µg/mL), pleconaril (10 µg/mL), or an equal volume of MEM (virus control) for 30 min at +37 °C in sterile thin-walled 200 μl PCR-tubes (5 tubes per each treatment condition) in a BioRad CFX PCR-machine (BioRad Laboratories, Inc., Hercules, CA, USA). Then, a thermal gradient of 37–55 °C for 2 min, followed by rapid cooling to 4 °C, was applied. Subsequently, the infectious viral activities of the samples were quantified by end-point dilution assay.

CVB4 (strain Powers) = assay: Viral yield reduction assay, CVB4; type: cell-based, Coxsackievirus B4 (CVB4; conditions: Vero cells
RD cells = assay: Cytotoxicity assay (MTT) in RD cells; type: cell-based; conditions: 24 h incubation with compound only

Structure (SMILES): COc1ccc(N2CN(c3nc4ccccc4s3)N=C(c3ccccc3)N2)cc1 [Compound 1b]
- CC50 at 24 h (in vitro [1]): > 1350 µM
- IC50 (Coxsackie B3 virus; Enterovirus B, B3, Vero): 5.4 ± 1.1 µM
- Antioxidant activity (DPPH assay) [2]: most pronounced antioxidant activity

Structure (SMILES): C=CC1N(c2nc3ccccc3s2)N=C(c2ccccc2)NN1c1ccc(OC)cc1 (stereo not shown) [Compound 4b]
- CC50 at 24 h (in vitro [1]): > 293 µM
- IC50 (Coxsackie B3 virus; Enterovirus B, B3, Vero): > 117 µM

Structure (SMILES): C=CC1N(c2nc3ccccc3s2)N=C(c2ccccc2)NN1c1ccccc1 (stereo not shown) [Compound 4a]
- CC50 at 24 h (in vitro [1]): > 315 µM
- IC50 (Coxsackie B3 virus; Enterovirus B, B3, Vero): > 126 µM

Structure (SMILES): CC1N(c2nc3ccccc3s2)N=C(c2ccccc2)NN1c1ccccc1 (stereo not shown) [Compound 2a]
- CC50 at 24 h (in vitro [1]): > 325 µM
- IC50 (Coxsackie B3 virus; Enterovirus B, B3, Vero): 6.49 ± 0.8 µM

Structure (SMILES): CCC1N(c2nc3ccccc3s2)N=C(c2ccccc2)NN1c1ccc(Br)cc1 (stereo not shown) [Compound 3e]
- CC50 at 24 h (in vitro [1]): 946 ± 89.6 µM
- IC50 (Coxsackie B3 virus; Enterovirus B, B3, Vero): > 210 µM

Structure (SMILES): c1ccc(C2=NN(c3nc4ccccc4s3)CN(c3ccccc3)N2)cc1 [Compound 1a]
- CC50 (in vitro [1]): 451 ± 51.2 µM
- CC50 at 24 h (in vitro [1]): 620 ± 52.7 µM
- CC50 at 24 h [3]: 673 ± 60.1 µM
- IC50 (CVB3 R): 12.9 µM
- CC50 (in vitro [4]): 850 ± 78.3 µM
- IC50 (SARS-CoV-2): 4.5 ± 1.2 µM
- IC50 (HSV1): 46.3 ± 4.4 µM
- Examined cells with no replication organelles visible (CVB3 virus): 47 out of 49
- IC50 (Coxsackie B3 virus): 1.8 ± 0.3 µM
- IC50 (Coxsackie B3 virus; Enterovirus B, B3, Vero): 2.7 µM
- Propagation of CVB3 strains in presence of 1a (CVB3-WT and -R variants): the resistant strain was able to effectively propagate in contrast to the wild-type virus
- IC50 [5]: 40.5 ± 5.1 µM
- IC50 (ECHO30): 1.6 ± 0.4 µM
- IC50 (CVB3 WT): 0.48 µM
- IC50 (CVB5; Enterovirus B): 1.5 ± 0.3 µM
- IC50 (Ad5): 43.1 ± 3.8 µM
- IC50 (CVA16; Enterovirus A): 0.8 ± 0.2 µM
- CC50 (Vero cells; SARS-CoV-2 row, 48 h or 24 h depending on virus life cycle, MTT): 656 ± 70.4 µM
- Antioxidant activity (DPPH assay) [2]: most pronounced antioxidant activity
- IC50 (CVA24; Enterovirus C): 0.9 ± 0.3 µM
- Inhibition of viral replication on late addition (CVB4; added later than 6 h after adsorption of the virus): Inhibition of viral replication was not observed
- Interval of addition with highest inhibitory activity (CVB4): from −2 to 4 h post-infection
- IC50 [6]: 38.7 ± 2.9 µM
- CC50 (in vitro [7]): 501 ± 45.7 µM
- Thermostabilizing effect on virion (infectious particles after heating) (CVB4 Powers): no infectious particles were detected when heated above 45 degrees
- IC50 (CVB4 (strain Powers); Enterovirus B): 1.7 ± 0.5 µM

Structure (SMILES): CCC1N(c2nc3ccccc3s2)N=C(c2ccccc2)NN1c1ccc(F)cc1 (stereo not shown) [Compound 3c]
- CC50 at 24 h (in vitro [1]): 360 ± 41.7 µM
- IC50 (Coxsackie B3 virus; Enterovirus B, B3, Vero): 71.9 ± 6.4 µM

Structure (SMILES): C=CC1N(c2nc3ccccc3s2)N=C(c2ccccc2)NN1c1ccc(I)cc1 (stereo not shown) [Compound 4d]
- CC50 at 24 h (in vitro [1]): 1530 ± 17.2 µM
- IC50 (Coxsackie B3 virus; Enterovirus B, B3, Vero): 51.6 ± 6.4 µM

Structure (SMILES): COc1ccc(N2NC(c3ccccc3)=NN(c3nc4ccccc4s3)C2C)cc1 (stereo not shown) [Compound 2b]
- CC50 at 24 h (in vitro [1]): 2050 ± 198 µM
- IC50 (Coxsackie B3 virus; Enterovirus B, B3, Vero): 24.1 ± 3.2 µM

Structure (SMILES): CC1N(c2nc3ccccc3s2)N=C(c2ccccc2)NN1c1ccc(Br)cc1 (stereo not shown) [Compound 2e]
- CC50 at 24 h (in vitro [1]): 69.1 ± 5.9 µM
- IC50 (Coxsackie B3 virus; Enterovirus B, B3, Vero): > 69.1 µM

Structure (SMILES): CCC1N(c2nc3ccccc3s2)N=C(c2ccccc2)NN1c1ccccc1 (stereo not shown) [Compound 3a]
- CC50 at 24 h (in vitro [1]): > 313 µM
- IC50 (Coxsackie B3 virus; Enterovirus B, B3, Vero): > 125 µM

Structure (SMILES): CCC1N(c2nc3ccccc3s2)N=C(c2ccccc2)NN1c1ccc(OC)cc1 (stereo not shown) [Compound 3b]
- CC50 at 24 h (in vitro [1]): 2330 ± 25.3 µM
- IC50 (Coxsackie B3 virus; Enterovirus B, B3, Vero): 60.1 ± 7.2 µM

Structure (SMILES): N=C(N)N [Guanidine hydrochloride, reference compound]
- CC50 (RD cells): > 10500 µM
- IC50 (ECHO30): 126 ± 18.2 µM
- IC50 (CVB5): 474 ± 33.4 µM
- IC50 (CVA16): 337 ± 28.3 µM
- CC50 (Vero cells; 24 h incubation with compound only, MTT (Table 2)): > 5240 µM
- IC50 (CVA24): 314 ± 20.1 µM
- IC50 (CVB4 (strain Powers)): 496 ± 26.5 µM

Structure (SMILES): C=CC1N(c2nc3ccccc3s2)N=C(c2ccccc2)NN1c1ccc(Cl)cc1 (stereo not shown) [Compound 4c]
- CC50 at 24 h (in vitro [1]): > 291 µM
- IC50 (Coxsackie B3 virus; Enterovirus B, B3, Vero): 27.9 ± 3.3 µM

Structure (SMILES): Cc1cc(CCCOc2c(C)cc(-c3noc(C(F)(F)F)n3)cc2C)on1 [Pleconaril, reference compound]
- CC50 at 24 h (in vitro [1]): 656 ± 58.4 µM
- IC50 (Coxsackie B3 virus; Enterovirus B, B3, Vero): 15.2 ± 1.6 µM
- Interval of addition with highest inhibitory activity (CVB4): between −2 and 0 h
- Thermostabilizing effect on virion (infectious particles after heating) (CVB4 Powers): had a thermostabilizing effect

Structure (SMILES): CC1N(c2nc3ccccc3s2)N=C(c2ccccc2)NN1c1ccc(F)cc1 (stereo not shown) [Compound 2d]
- CC50 at 24 h (in vitro [1]): 49.6 ± 3.7 µM
- IC50 (Coxsackie B3 virus; Enterovirus B, B3, Vero): > 49.6 µM

Structure (SMILES): CCc1ccc(N2NC(c3ccccc3)=NN(c3nc4ccccc4s3)C2C)cc1 (stereo not shown) [Compound 2c]
- CC50 at 24 h (in vitro [1]): > 303 µM
- IC50 (Coxsackie B3 virus; Enterovirus B, B3, Vero): > 121 µM

Structure (SMILES): Brc1ccc(N2CN(c3nc4ccccc4s3)N=C(c3ccccc3)N2)cc1 [Compound 1d]
- CC50 at 24 h (in vitro [1]): 886 ± 90.4 µM
- IC50 (Coxsackie B3 virus; Enterovirus B, B3, Vero): 6.2 ± 1.9 µM

Structure (SMILES): Clc1ccc(N2CN(c3nc4ccccc4s3)N=C(c3ccccc3)N2)cc1 [Compound 1c]
- CC50 at 24 h (in vitro [1]): 321 ± 28.2 µM
- IC50 (Coxsackie B3 virus; Enterovirus B, B3, Vero): 7.4 ± 2.2 µM
